Data reported in patent US8258260B2, “Tumor-associated peptides binding promiscuously to human leukocyte antigen (HLA) class II molecules” (Immatics Biotechnologies GmbH, priority 2005, dated 2012).

Tested on: CD4-positive T-cells
Assay: In vitro T-cell priming with peptide-pulsed autologous DCs, intracellular IFNγ staining of CD4-positive T-cells
Type: cell-based, human
Details: for CD4+ T-cell IFNγ response to peptide: donors 1, 2 and 3, positive = more than two-fold over negative controls
Procedure: Maturation of DCs: DCs were prepared using blood from healthy donors. Briefly, PBMCs were isolated using standard gradient centrifugation (Lymphocyte Separation Medium, PAA Laboratories GmbH, Pasching, Austria) and plated at a density of 7×10^6 cells/ml in X-Vivo 15 medium. After 2 hours at 37° C., non-adherent cells were removed and adherent monocytes cultured for 6 days in X-Vivo medium with 100 ng/ml GM-CSF and 40 ng/ml IL-4 (AL-ImmunoTools, Friesoythe, Germany). On day 7, immature DCs were activated with 10 ng/ml TNF-α (R&D Systems, Wiesbaden, Germany) and 20 μg/ml poly(IC) (Sigma Aldrich, Steinheim, Germany) for 3 days.
Generation of antigen-specific CD4-positive T-cells: 10^6 PBMCs per well were stimulated with 2×10^5 peptide pulsed (5 μg/ml) autologous DCs. Cells were incubated in 96-well plates (7 wells per donor and per peptide) with T-cell medium: supplemented RPMI 1640 in the presence of 10 ng/ml IL-12 (Promocell, Heidelberg, Germany). After 3 to 4 days of co-incubation at 37° C., fresh medium with 80 U/ml IL-2 (Proleukin, Chiron Corporation, Emeryville, Calif., USA) and 5 ng/ml IL-7 (Promocell) was added. Restimulations were done with autologous PBMCs plus peptide every 6 to 8 days.
Intracellular IFNγ staining: After 3 and 4 rounds of stimulation, PBMCs were thawed, washed twice in X-Vivo 15 medium, resuspended at 10^7 cells/ml in T-cell medium and cultured overnight. On the next day, PBMCs, pulsed with 5 μg/ml peptide, were incubated with effector cells in a ratio of 1:1 for 6 h. Golgi-Stop (Becton Dickinson, Heidelberg, Germany) was added for the final 4 h of incubation.
Cells were analyzed using a Cytofix/Cytoperm Plus kit (Becton Dickinson) and CD4-FITC-(Immunotools), IFNγ-PE- and CD8-PerCP clone SK1-antibodies (Becton Dickinson). For negative controls, cells of seven wells were pooled and incubated either with irrelevant peptide or without peptide, respectively. Stimulation with PMA/Ionomycin was used for positive control. Cells were analyzed on a three-color FACSCalibur (Becton Dickinson).
To generate antigen-specific CD4-positive T-cells and to test the peptides for promiscuous binding, PBMCs of 4 healthy donors with different HLA-DR alleles (FIG. 2), one of them carrying DRB1*1101, were stimulated using peptide-pulsed autologous DCs. […] As a read-out system for the generation of antigen-specific CD4-positive T-cells, IFNγ levels were assessed by flow cytometry. T-cells were analyzed after the third and fourth weekly stimulation by intracellular IFNγ staining plus CD4-FITC and CD8-PerCP staining to determine the percentage of IFNγ-producing cells in specific T-cell subpopulations. […]

Row | Sequence | CD4+ T-cell IFNγ response to peptide | maximal frequency of IFNγ producing CD4+ T-cells (donor 2) [%] | maximal frequency of IFNγ producing CD4+ T-cells (donor 3) [%]
1 | NPPSMVAAGSVVAAV (listed as Homo sapiens) [SEQ ID NO: 49] | showed IFNγ responses | – | –
2 | SQDDIKGIQKLYGKRS [SEQ ID NO: 1] | showed CD4^+ T-cells reactive | – | –
3 | HSKIIIIKKGHAK (listed as Homo sapiens) [SEQ ID NO: 48] | – | 0.05 | 0.07
